Laboratory results reported in the supplement of paper PMC10627819.

Tests used:
[1] = system: B. subtilis 168; experiment: Bliss interaction score (quartile over a dose matrix) (fitness difference); higher = more antagonism (negative = synergy)
Outline: (§1)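 At entry into stationary phase, OD595 was recorded and divided by the robust mean of the no-drug wells on that plate, with any value above 1 set to 1. This gives the fitness measure used throughout. Single-drug fitness was inferred from combination data, and the Bliss score, observed minus product-expected fitness, is shown as quartiles across technical, biological and donor/recipient replicates.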

[2] = system: S. aureus Newman; experiment: as above
Outline: as §1

[3] = system: S. pneumoniae D39V; experiment: as above
Outline: as §1

[4] = system: S. aureus DSM 20231; experiment: as above
Outline: as §1

[5] = system: B. subtilis 168; experiment: fitness (endpoint OD595 vs no drug) (fraction); higher = more growth
Outline: (§2)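 Volumes were 30 µl per well, or 55 µl for S. pneumoniae, in 384-well plates inoculated at OD595 0.01. Media were TSB, LB Lennox or CY at 37 °C, and OD595 was read every 30 min for 14 h with first-reading background subtraction. Fitness is the ratio of optical density at stationary-phase entry to the robust mean of no-drug controls. That ratio is capped at 1.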

[6] = system: S. aureus Newman; experiment: as above
Outline: as §2

[7] = system: S. pneumoniae D39V; experiment: as above
Outline: as §2
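For Bliss interaction score (quartile over a dose matrix) in this document: first quartile when negative (synergy) and third quartile when positive (antagonism).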

C[C@@H]1O[C@@H]1P(=O)(O)O [Fosfomycin] + CN[C@@H]1[C@H](O[C@H]2[C@H](O[C@H]3[C@H](O)[C@@H](O)[C@H](N=C(N)N)[C@@H](O)[C@@H]3N=C(N)N)O[C@@H](C)[C@]2(O)C=O)O[C@@H](CO)[C@H](O)[C@H]1O [Streptomycin]
Conditions | Bliss interaction score
[1] | -0.187
[2] | -0.106
[3] | -0.0437
[4] | -0.14

fitness
Conditions | partner 1 µg/mL | partner 2 µg/mL | partner 4 µg/mL | partner 8 µg/mL
[5], first compound 1.562 µg/mL | – | 0.664 | – | –
[5], first compound 3.124 µg/mL | – | 0.399 | – | –
[6], first compound 0.781 µg/mL | 0.599 | 0.565 | – | –
[6], first compound 1.562 µg/mL | 0.517 | 0.467 | – | –
[6], first compound 3.124 µg/mL | 0.156 | 0.131 | 0.0427 | –
[7], first compound 1.25 µg/mL | – | 0.919 | 0.921 | 0.902
[7], first compound 2.5 µg/mL | – | 0.903 | 0.9 | 0.918
[7], first compound 5 µg/mL | – | 0.715 | 0.747 | 0.722

[7], partner 16 µg/mL, one replicate
Conditions | fitness
first compound 1.25 µg/mL | 0.765
first compound 2.5 µg/mL | 0.714
first compound 5 µg/mL | 0.436

Cc1ncc([N+](=O)[O-])n1CCO [Metronidazole] + CN(C)c1cc(NC(=O)CNC(C)(C)C)c(O)c2c1C[C@H]1C[C@H]3[C@H](N(C)C)C(O)=C(C(N)=O)C(=O)[C@@]3(O)C(O)=C1C2=O [Tigecycline]
Conditions | Bliss interaction score
[1] | -0.0624
[2] | 0.0458
[3] | 0.0439
[4] | 0.0589

fitness
Conditions | first compound 0.625 µg/mL | first compound 1.073 µg/mL | first compound 1.25 µg/mL | first compound 2.145 µg/mL | first compound 2.5 µg/mL | first compound 4.29 µg/mL | first compound 5 µg/mL
[5], partner 0.039 µg/mL | 0.963 | – | 0.977 | – | ≥ 1 | – | –
[5], partner 0.078 µg/mL | 0.942 | – | 0.94 | – | 0.976 | – | –
[5], partner 0.156 µg/mL | 0.944 | – | 0.963 | – | 0.938 | – | –
[6], partner 0.039 µg/mL | 0.987 | – | ≥ 1 | – | 0.995 | – | –
[6], partner 0.078 µg/mL | ≥ 1 | – | 0.981 | – | ≥ 1 | – | –
[6], partner 0.156 µg/mL | 0.966 | – | 0.977 | – | ≥ 1 | – | –
[7], partner 0.65 µg/mL | – | 0.931 | 0.965 | 0.925 | 0.968 | 0.935 | 0.964
[7], partner 1.3 µg/mL | – | 0.931 | 0.94 | 0.938 | 0.943 | 0.949 | 0.952
[7], partner 2.6 µg/mL | – | 0.921 | 0.957 | 0.911 | 0.964 | 0.943 | 0.952

fitness, one replicate
Conditions | first compound 0.625 µg/mL | first compound 0.781 µg/mL | first compound 1.25 µg/mL | first compound 1.562 µg/mL | first compound 2.5 µg/mL | first compound 3.124 µg/mL
[5], partner 0.125 µg/mL | ≥ 1 | – | ≥ 1 | – | ≥ 1 | –
[5], partner 0.25 µg/mL | 0.963 | – | 0.942 | – | 0.967 | –
[5], partner 0.5 µg/mL | 0.917 | – | 0.927 | – | 0.968 | –
[6], partner 0.039 µg/mL | – | ≥ 1 | – | 0.971 | – | 0.932
[6], partner 0.078 µg/mL | – | ≥ 1 | – | ≥ 1 | – | ≥ 1
[6], partner 0.156 µg/mL | – | ≥ 1 | – | ≥ 1 | – | 0.959

Cc1ncc([N+](=O)[O-])n1CCO [Metronidazole] + CN[C@@H]1[C@H](O[C@H]2[C@H](O[C@H]3[C@H](O)[C@@H](O)[C@H](N=C(N)N)[C@@H](O)[C@@H]3N=C(N)N)O[C@@H](C)[C@]2(O)C=O)O[C@@H](CO)[C@H](O)[C@H]1O [Streptomycin]
Conditions | Bliss interaction score
[1] | 0.0729
[2] | 0.0764
[3] | 0.0448
[4] | 0.0693

fitness
Conditions | partner 1 µg/mL | partner 2 µg/mL | partner 4 µg/mL | partner 8 µg/mL
[5], first compound 0.625 µg/mL | – | 0.996 | 0.657 | 0.0295
[5], first compound 1.25 µg/mL | – | 0.997 | 0.633 | 0.0395
[5], first compound 2.5 µg/mL | – | 0.995 | 0.636 | 0.0352
[6], first compound 0.625 µg/mL | 0.91 | 0.956 | 0.909 | –
[6], first compound 0.781 µg/mL | 0.966 | 0.899 | – | –
[6], first compound 1.25 µg/mL | 0.986 | 0.967 | 0.935 | –
[6], first compound 1.562 µg/mL | ≥ 1 | 0.917 | – | –
[6], first compound 2.5 µg/mL | 0.928 | 0.938 | 0.889 | –
[6], first compound 3.124 µg/mL | 0.982 | 0.926 | – | –
[7], first compound 1.073 µg/mL | – | 0.903 | 0.992 | 0.945
[7], first compound 1.25 µg/mL | – | – | 0.992 | 0.891
[7], first compound 2.145 µg/mL | – | 0.935 | 0.977 | 0.932
[7], first compound 2.5 µg/mL | – | – | 0.998 | 0.893
[7], first compound 4.29 µg/mL | – | 0.871 | 0.905 | 0.945
[7], first compound 5 µg/mL | – | – | 0.981 | 0.907

fitness, [7], one replicate
Conditions | first compound 1.25 µg/mL | first compound 2.5 µg/mL | first compound 5 µg/mL
partner 2 µg/mL | ≥ 1 | ≥ 1 | 0.987
partner 16 µg/mL | 0.815 | 0.787 | 0.818
